From patent US9181232B2, “Difluoro-hexahydro-cyclopentaoxazinyls and difluoro-hexahydro-benzooxazinyls as BACE1 inhibitors” (Hoffmann-La Roche Inc., priority 2012, dated 2015)

Legend:
CYP2D6 = target: T1, CYP2D6 (Homo sapiens, UniProt P10635); test: CYP inhibition assay, human liver microsomes, dextromethorphan; assay type: in vitro ADME; settings: read-out: CYP IC50 2D6
T1 construct: 0.2 mg/ml pooled human liver microsomes; from tissue; host or cells: pooled human liver microsomes
Experimental: (§1) Inhibition of cytochromes P450 (CYPs) 2C9, 2D6 and 3A4 was assessed using human liver microsomes and CYP-selective substrate metabolism reactions. 50 μl incubations were made up containing (finally) 0.2 mg/ml pooled human liver microsomes, 5 μM substrate (diclofenac for CYP2C9 [4′hydroxylase], dextromethorphan for CYP2D6 [O-demethylase] or midazolam for CYP3A4 [1′hydroxylase]), 0.25 μL DMSO containing test inhibitor and NADPH regenerating system. Test inhibitor concentrations of 50, 16.7, 5.6, 1.9, 0.6 and 0.2 μM were assessed in singlicate. Incubations were prewarmed to 37° C. for 10 minutes before initiation by addition of NADPH regenerating system. Incubations were quenched after 5 minutes (20 minutes for dextromethorphan) by addition of 50 μl cold acetonitrile containing 20 ng/ml 4-OH-diclofenac-13C6, 20 ng/mL dextrorphan-D3 and 20 ng/mL 1-OH-midazolam-D4. Quenched incubates were stored at −20° C. for at least 1 hour before centrifugation (20,000×g, 20 minutes). Supernatants were removed and diluted 1:1 with water prior to analysis using a RapidFire sample injector system and API4000 mass spectrometer. Peak areas for substrate, metabolite and stable-labelled metabolite standard were determined using MS/MS. The peak area ratios between the metabolite generated by the enzymatic reaction and the internal standard were used in subsequent calculations. The percentage of (DMSO) control activity was calculated for each incubate and IC50 values estimated by non-linear regression. Sulfaphenazole, quinidine or ketoconazole were tested in each CYP2C9, CYP2D6 or CYP3A4 inhibition experiment, respectively, to ensure assay sensitivity and reproducibility. (Validated assays for human cytochrome P450 activities^11)

CYP3A4 = target: T2, CYP3A4 (Homo sapiens, UniProt P08684); test: CYP inhibition assay, human liver microsomes, midazolam; assay type: in vitro ADME; settings: read-out: CYP IC50 3A4
T2 construct: 0.2 mg/ml pooled human liver microsomes; from tissue; host or cells: pooled human liver microsomes
T2 sequence (P08684 whole entry): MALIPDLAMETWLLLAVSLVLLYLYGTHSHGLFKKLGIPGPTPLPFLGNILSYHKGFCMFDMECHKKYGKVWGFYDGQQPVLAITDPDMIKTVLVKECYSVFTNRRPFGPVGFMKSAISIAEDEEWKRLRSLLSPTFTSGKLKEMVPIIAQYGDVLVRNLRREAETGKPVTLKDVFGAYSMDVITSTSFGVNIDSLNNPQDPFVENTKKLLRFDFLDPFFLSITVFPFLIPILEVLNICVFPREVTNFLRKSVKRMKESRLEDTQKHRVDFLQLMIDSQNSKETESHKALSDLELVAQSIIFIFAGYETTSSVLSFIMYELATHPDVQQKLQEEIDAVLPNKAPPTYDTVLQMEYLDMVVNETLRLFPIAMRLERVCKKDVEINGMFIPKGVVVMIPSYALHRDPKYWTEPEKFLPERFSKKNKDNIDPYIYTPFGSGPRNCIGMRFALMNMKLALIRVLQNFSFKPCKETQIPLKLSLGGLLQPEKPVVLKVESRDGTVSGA
Experimental: as §1

[1] = target: T3, cathepsin D (from human liver) (Homo sapiens, UniProt P07339); test: Cathepsin D fluorescent substrate kinetic assay; assay type: biochemical; settings: pH 5.5
T3 construct: cathepsin D (from human liver, Calbiochem); purchased Calbiochem; host or cells: human liver (tissue-purified)
T3 sequence (P07339 65-162 limits assumed): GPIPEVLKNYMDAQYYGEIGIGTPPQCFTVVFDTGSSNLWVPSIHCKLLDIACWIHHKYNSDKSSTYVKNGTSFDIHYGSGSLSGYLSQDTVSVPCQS
T3 sequence (P07339 169-412 limits assumed): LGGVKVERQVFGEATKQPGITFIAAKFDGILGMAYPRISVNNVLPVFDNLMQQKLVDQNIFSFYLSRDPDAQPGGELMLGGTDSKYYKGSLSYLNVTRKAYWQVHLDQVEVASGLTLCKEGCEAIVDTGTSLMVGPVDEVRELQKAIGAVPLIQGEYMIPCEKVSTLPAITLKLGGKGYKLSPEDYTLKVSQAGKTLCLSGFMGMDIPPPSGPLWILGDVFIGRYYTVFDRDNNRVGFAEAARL
Description: (§2) The MR121 fluorescence assays described below are based on the fact that MR121 forms a non-fluorescent ground state complex with tryptophan. In solution this formation occurs at millimolar concentrations of tryptophan. The mechanism can be used to design a generic biochemical assay for proteases. A substrate peptide is labeled at the N-terminus with tryptophan and at the C-terminus with the fluorophore MR121 (for cathepsin D the 10 amino acid peptide WTSVLMAAPC-MR121 was used; for cathepsin E, MR121-CKLVFFAEDW was used). In absence of protease activity, the substrates remain intact and the MR121 fluorescence is reduced by the high local Trp-concentration. If the substrates are cleaved by the enzymes the MR121 fluorescence is recovered.
(§3) The fluorescent substrate cathepsin D and cathepsin E kinetic assays were performed at room temperature in 384-well microtiter plates (black with clear flat bottom, non binding surface plates from Corning) in a final volume of 51 μl. The test compounds were serially diluted in DMSO (15 concentrations, 1/3 dilution steps) and 1 μl of diluted compounds were mixed for 10 min with 40 μl of cathepsin D (from human liver, Calbiochem) diluted in assay buffer (100 mM sodium acetate, 0.05% BSA, pH 5.5; final concentration: 200 nM) or with 40 μl of recombinant human cathepsin E (R&D Systems) diluted in assay buffer (100 mM sodium acetate, 0.05% BSA, pH 4.5; final concentration: 0.01 nM). After addition of 10 μl of the cathepsin D substrate WTSVLMAAPC-MR121 diluted in cathepsin D assay buffer (final concentration: 300 nM) or […] cathepsin E substrate MR121-CKLVFFAEDW diluted in cathepsin E assay buffer (final concentration: 300 nM), the plates were strongly shaken for 2 minutes. The enzymatic reaction was followed in a plate: vision reader (Perkin Elmer) (excitation wavelength: 630 nm; emission: 695 nm) for at least 30 minutes in a kinetic measurement detecting an increase of MR121 fluorescence during the reaction time. The slope in the linear range of the kinetic was calculated and the IC50 of the test compounds were determined using a four parameter equation for curve fitting.

hERG channel = target: T4, hERG channel (Homo sapiens, UniProt Q12809); test: PatchXpress hERG inhibition assay; assay type: cell-based; settings: @ 1 μM; CHO cells expressing hERG
T4 construct: expressed in transfected cells; host or cells: CHO cells
T4 sequence (Q12809 whole entry): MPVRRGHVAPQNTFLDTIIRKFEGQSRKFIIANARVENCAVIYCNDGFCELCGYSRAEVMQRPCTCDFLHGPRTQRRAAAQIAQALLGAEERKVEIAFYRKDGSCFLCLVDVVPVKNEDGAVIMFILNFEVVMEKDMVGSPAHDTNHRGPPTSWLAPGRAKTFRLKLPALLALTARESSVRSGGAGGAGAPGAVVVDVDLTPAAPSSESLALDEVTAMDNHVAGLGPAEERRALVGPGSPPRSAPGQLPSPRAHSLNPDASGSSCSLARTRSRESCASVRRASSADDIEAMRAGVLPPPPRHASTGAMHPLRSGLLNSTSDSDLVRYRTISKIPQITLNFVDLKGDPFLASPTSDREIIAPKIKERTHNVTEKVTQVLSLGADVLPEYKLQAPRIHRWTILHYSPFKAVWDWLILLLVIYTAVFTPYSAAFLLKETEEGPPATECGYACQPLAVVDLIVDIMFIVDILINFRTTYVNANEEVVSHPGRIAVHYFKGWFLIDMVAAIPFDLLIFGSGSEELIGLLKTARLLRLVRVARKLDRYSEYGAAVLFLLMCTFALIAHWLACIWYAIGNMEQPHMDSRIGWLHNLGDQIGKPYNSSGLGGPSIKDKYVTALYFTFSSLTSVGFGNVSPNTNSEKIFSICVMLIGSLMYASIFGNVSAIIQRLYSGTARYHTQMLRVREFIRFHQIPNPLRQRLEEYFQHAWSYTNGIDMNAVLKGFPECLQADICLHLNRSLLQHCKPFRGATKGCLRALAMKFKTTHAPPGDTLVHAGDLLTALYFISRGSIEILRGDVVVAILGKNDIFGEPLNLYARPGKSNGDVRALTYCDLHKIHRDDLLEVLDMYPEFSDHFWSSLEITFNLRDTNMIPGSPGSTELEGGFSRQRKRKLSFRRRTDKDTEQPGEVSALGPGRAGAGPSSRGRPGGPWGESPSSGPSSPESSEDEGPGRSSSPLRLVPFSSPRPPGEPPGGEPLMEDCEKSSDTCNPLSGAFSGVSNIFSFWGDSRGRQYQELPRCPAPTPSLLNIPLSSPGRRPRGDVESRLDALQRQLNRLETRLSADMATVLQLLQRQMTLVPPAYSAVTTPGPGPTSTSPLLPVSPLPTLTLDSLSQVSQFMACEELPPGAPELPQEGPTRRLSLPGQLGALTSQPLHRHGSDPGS
Experimental: The detailed method to quantify hERG channel inhibition by the automated patch clamp system PatchXpress® 7000A (Molecular Devices, Sunnyvale, Calif.) has been described by Guo et al.^12 In brief, Chinese hamster ovary (CHO) cells transfected with the human ether-a-go-go-related gene (hERG) was cultured in Ex-cell 302 media supplemented with 10% fetal bovine serum, 2 mM glutamine and 0.25 mg/ml geneticin and maintained in a CO2 incubator at 37° C. For patch clamp electrophysiology, the external buffer contained (in mM): 150 NaCl, 10 Hepes, 4 KCl, 1.2 CaCl2, 1 MgCl2, pH 7.4 adjusted with […] and the internal recording solution contained (in mM): 140 KCl, 6 EGTA, 5 Hepes, MgCl2, 5 ATP-Na2, pH 7.2 adjusted with KOH. Once the cell was loaded in the recording chamber and formed a giga ohm seal with the planar glass electrodes (Sealchip™), a whole-cell configuration was achieved by rupturing the cell membrane. The membrane potential was then clamped at −80 mV and the hERG channel activated by a 1-second depolarizing pulse delivered at 0.1 Hz, the hERG current was measured during the 500 ms-repolarizing pulse to −40 mV. After an acceptable hERG current recording was obtained, the cell was first exposed to 0.3% DMSO as the vehicle control, followed by the test article in three ascending, full-log interval concentrations and finally E-4031 at 1 μM (as the positive control) to block the hERG current completely. Each test article was tested on three or more cells and at concentrations up to 30 μM or the solubility limit determined the BD Gentest™ solubility scanner. The inhibition of hERG current at each concentration was normalized to that recorded in the vehicle control, and fitted with Hill equation to calculate IC20 and/or IC50.

[2] = target: T5, recombinant human cathepsin E (Homo sapiens, UniProt P14091); test: Cathepsin E fluorescent substrate kinetic assay; assay type: biochemical; settings: pH 4.5
T5 construct: purchased R&D Systems
T5 sequence (P14091 54-396): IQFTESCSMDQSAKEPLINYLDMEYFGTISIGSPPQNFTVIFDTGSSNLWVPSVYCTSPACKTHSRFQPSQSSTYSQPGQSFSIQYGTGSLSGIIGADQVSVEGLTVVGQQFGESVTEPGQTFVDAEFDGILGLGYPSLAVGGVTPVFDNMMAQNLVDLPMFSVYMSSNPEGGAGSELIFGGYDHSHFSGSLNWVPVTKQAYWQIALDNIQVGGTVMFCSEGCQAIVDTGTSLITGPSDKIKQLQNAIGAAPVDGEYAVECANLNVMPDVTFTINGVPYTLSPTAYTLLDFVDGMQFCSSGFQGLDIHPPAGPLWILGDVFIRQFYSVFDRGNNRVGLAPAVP
Description: as §2, §3

T1 sequence (P10635 whole entry): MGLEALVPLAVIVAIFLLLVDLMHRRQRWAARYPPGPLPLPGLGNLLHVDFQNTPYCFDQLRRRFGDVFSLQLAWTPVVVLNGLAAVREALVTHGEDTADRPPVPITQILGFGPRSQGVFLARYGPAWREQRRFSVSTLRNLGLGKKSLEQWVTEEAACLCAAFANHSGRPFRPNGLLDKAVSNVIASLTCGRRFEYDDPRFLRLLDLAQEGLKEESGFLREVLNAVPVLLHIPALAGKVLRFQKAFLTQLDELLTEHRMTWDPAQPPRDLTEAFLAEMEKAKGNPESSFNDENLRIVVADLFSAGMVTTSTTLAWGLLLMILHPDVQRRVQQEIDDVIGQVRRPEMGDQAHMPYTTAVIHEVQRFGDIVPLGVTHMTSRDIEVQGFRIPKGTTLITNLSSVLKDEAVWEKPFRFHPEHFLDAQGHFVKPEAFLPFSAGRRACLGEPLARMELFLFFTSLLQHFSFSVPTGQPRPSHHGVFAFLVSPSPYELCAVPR

Row | Compound | IC50 (CYP2D6) [µM] | IC50 (CYP3A4) [µM] | IC50 [1] [µM] | hERG inhibition (hERG channel) | IC50 [2] [µM]
1 | CC#CCOc1cnc(C(=O)Nc2ccc(F)c([C@@]3(C)N=C(N)O[C@@H]4CCC(F)(F)[C@@H]43)c2)cn1 [Example 1, 5-But-2-ynyloxy-pyrazine-2-carboxylic acid [3-((4S,4aR,7aR)-2-amino-5,5-difluoro-4-methyl-4,4a,5,6,7,7a-hexahydro-cyclopenta[e][1,3]oxazin-4-yl)-4-fluoro-phenyl]-amide] | 1 to 10 | > 10 | 135 | A (A = less than 50% inhibition @ 1 μM) | 97
2 | C[C@]1(c2cc(NC(=O)c3ccc(C#N)cn3)ccc2F)N=C(N)O[C@@H]2CCC(F)(F)[C@@H]21 [Example 2, 5-Cyano-pyridine-2-carboxylic acid [3-((4S,4aR,7aR)-2-amino-5,5-difluoro-4-methyl-4,4a,5,6,7,7a-hexahydro-cyclopenta[e][1,3]oxazin-4-yl)-4-fluoro-phenyl]-amide] | > 10 | > 10 | > 200 | A (A = less than 50% inhibition @ 1 μM) | 90
3 | C[C@]1(c2cc(NC(=O)c3ccc(C#N)cn3)ccc2F)N=C(N)O[C@@H]2CCCC(F)(F)[C@@H]21 [Example 8, 5-Cyano-pyridine-2-carboxylic acid [3-((4S,4aR,8aR)-2-amino-5,5-difluoro-4-methyl-4a,5,6,7,8,8a-hexahydro-4H-benzo[e][1,3]oxazin-4-yl)-4-fluoro-phenyl]-amide] | > 10 | > 10 | > 200 | A (A = less than 50% inhibition @ 1 μM) | > 200
